Assay results as given in ChEMBL document CHEMBL1909046, “DrugMatrix in vitro pharmacology data”.

How the values were obtained:
[1] = biological target: 5-hydroxytryptamine receptor 1B (Rattus norvegicus, UniProt P28564); format: cell membranes, Wistar, Cerebral cortex, Membrane; note: in other assays of this panel Not Active means under 50% inhibition at 10 µM
[2] = DRUGMATRIX: Phorbol Ester radioligand binding (ligand: [3H] PDBu); format: cell membranes, Mus musculus, ICR, Brain, Membrane; details: Not Active = under 50% inhibition at 10 µM
[3] = DRUGMATRIX: Glutamate, NMDA, Agonism radioligand binding (ligand: [3H] CGP-39653); format: cell membranes, Rattus norvegicus, Wistar, Cerebral cortex, Membrane; details: Not Active = under 50% inhibition at 10 µM
Substance-K receptor = biological target: T1, Substance-K receptor (Homo sapiens, UniProt P21452); format: cell membranes, CHO, Membrane; details: cho; note: in other assays of this panel Not Active means under 50% inhibition at 10 µM
T1 sequence (P21452 whole entry): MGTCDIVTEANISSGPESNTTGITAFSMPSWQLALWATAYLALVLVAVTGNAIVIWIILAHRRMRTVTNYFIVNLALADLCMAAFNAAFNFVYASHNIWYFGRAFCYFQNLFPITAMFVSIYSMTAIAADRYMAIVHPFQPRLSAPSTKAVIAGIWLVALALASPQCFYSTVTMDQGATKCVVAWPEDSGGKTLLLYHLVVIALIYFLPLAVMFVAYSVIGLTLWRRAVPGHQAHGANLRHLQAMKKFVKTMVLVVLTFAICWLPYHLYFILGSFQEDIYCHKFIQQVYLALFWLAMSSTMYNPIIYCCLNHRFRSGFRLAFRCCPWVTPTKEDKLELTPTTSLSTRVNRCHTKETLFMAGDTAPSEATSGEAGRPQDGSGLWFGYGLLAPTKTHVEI

Cytochrome P450 2D6 = Cytochrome P450 2D6 (Homo sapiens, UniProt P10635); details: bti-tn-5b1-4; note: in other assays of this panel Not Active means under 50% inhibition at 10 µM
[4] = biological target: T2, Nitric oxide synthase, inducible (Mus musculus, UniProt P29477); design: species or system Escherichia coli;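 note: inhibition of iNOS enzyme activity measured with L-arginine as substrate; in other assays of this panel Not Active means under 50% inhibition at 10 µM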
T2 sequence (P29477 whole entry): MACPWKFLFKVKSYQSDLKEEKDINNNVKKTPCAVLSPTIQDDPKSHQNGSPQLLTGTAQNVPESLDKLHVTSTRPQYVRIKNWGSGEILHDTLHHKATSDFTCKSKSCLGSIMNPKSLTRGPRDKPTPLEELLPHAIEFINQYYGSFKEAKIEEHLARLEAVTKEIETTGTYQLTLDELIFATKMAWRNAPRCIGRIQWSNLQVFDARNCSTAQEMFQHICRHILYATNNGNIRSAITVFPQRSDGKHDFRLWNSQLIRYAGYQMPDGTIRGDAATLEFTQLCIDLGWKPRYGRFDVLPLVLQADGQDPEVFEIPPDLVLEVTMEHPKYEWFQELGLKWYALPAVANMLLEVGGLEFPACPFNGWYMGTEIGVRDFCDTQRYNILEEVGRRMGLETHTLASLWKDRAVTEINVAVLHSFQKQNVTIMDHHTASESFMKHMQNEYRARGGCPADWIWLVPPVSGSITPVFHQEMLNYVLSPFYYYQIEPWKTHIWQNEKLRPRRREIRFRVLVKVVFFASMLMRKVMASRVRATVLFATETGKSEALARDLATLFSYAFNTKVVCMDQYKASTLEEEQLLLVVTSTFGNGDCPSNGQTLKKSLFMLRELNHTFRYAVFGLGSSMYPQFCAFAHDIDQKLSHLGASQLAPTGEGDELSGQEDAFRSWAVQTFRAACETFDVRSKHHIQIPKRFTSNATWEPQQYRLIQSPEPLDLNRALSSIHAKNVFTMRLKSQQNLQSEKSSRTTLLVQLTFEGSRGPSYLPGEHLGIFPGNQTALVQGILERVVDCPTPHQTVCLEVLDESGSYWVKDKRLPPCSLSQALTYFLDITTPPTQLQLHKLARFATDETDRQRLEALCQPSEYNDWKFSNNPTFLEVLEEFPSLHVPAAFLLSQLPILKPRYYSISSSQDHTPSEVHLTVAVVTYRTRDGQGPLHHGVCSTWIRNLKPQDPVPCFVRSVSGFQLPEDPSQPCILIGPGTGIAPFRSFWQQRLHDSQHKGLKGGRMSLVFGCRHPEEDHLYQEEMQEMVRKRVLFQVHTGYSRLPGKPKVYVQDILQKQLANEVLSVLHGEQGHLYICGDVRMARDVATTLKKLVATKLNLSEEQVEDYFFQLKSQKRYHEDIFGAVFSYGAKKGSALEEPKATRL

B2 bradykinin receptor = biological target: T3, B2 bradykinin receptor (Homo sapiens, UniProt P30411); format: cell membranes, Membrane; details: chem-1; note: in other assays of this panel Not Active means under 50% inhibition at 10 µM
T3 sequence (P30411 whole entry): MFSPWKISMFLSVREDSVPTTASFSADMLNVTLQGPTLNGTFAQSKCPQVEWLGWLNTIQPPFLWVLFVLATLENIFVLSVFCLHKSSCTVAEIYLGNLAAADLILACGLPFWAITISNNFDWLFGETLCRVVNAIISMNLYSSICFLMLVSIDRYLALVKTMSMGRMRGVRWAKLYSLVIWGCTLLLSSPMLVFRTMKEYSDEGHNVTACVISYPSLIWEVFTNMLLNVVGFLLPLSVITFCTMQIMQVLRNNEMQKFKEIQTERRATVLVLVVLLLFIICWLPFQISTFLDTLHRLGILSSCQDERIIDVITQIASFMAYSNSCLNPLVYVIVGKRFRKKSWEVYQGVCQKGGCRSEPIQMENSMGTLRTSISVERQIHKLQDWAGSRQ

Sequence of 5-hydroxytryptamine receptor 1B (P28564 whole entry): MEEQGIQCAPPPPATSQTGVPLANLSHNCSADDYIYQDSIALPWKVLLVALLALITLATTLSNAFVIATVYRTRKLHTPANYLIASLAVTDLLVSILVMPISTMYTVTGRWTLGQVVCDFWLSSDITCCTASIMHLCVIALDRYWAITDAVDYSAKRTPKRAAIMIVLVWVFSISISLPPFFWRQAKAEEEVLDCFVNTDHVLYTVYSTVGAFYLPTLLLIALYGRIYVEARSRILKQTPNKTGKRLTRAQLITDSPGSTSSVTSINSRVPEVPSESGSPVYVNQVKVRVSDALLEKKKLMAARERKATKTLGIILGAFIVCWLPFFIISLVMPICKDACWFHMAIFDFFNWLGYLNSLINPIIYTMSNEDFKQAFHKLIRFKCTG
Sequence of Cytochrome P450 2D6 (P10635 whole entry): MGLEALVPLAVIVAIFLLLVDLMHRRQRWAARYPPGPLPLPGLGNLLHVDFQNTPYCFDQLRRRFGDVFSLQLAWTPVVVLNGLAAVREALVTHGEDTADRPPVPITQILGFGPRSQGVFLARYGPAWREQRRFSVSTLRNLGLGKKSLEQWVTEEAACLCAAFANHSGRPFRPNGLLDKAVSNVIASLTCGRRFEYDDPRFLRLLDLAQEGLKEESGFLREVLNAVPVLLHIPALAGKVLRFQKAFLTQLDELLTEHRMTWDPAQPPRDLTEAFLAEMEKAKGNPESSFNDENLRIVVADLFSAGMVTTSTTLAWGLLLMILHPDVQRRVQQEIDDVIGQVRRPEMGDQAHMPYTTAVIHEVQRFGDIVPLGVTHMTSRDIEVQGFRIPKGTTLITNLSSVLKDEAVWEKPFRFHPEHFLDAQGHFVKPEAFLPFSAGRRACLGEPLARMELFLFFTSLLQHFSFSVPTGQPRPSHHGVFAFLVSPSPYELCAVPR

Structure (SMILES)	IC50 [1]	IC50 [2]	Ki [2]	IC50 [3]	Ki [3]	IC50 (Substance-K receptor)	IC50 (Cytochrome P450 2D6)	Ki (Cytochrome P450 2D6)	IC50 [4]	IC50 (B2 bradykinin receptor)	IC50 ([1]; read-out: IC50) [µM]	Ki ([1]; read-out: Ki) [nM]
CCCCC1=NC2(CCCC2)C(=O)N1Cc1ccc(-c2ccccc2-c2nnn[nH]2)cc1 [IRBESARTAN]	Not Active	Not Active	Not Active	Not Active	Not Active	Not Active	Not Active	Not Active	Not Active	Not Active		
COC(=O)Nc1nc2cc(C(=O)c3ccc(F)cc3)ccc2[nH]1 [FLUBENDAZOLE]	Not Active	Not Active	Not Active	Not Active	Not Active	Not Active	Not Active	Not Active	Not Active	Not Active		
CN(C)CCC=C1c2ccccc2CCc2ccccc21 [AMITRIPTYLINE]		Not Active	Not Active	Not Active	Not Active	Not Active	Not Active	Not Active	Not Active	Not Active	3.73	1690
Cc1ccc(C)c(OCCCC(C)(C)C(=O)O)c1 [GEMFIBROZIL]	Not Active	Not Active	Not Active	Not Active	Not Active	Not Active	Not Active	Not Active	Not Active	Not Active		
C[N+](C)(C)C[C@H](O)CC(=O)[O-] [LEVOCARNITINE]	Not Active	Not Active	Not Active	Not Active	Not Active	Not Active	Not Active	Not Active	Not Active	Not Active		
CNC1=Nc2ccc(Cl)cc2C(c2ccccc2)=[N+]([O-])C1 [CHLORDIAZEPOXIDE]	Not Active	Not Active	Not Active	Not Active	Not Active	Not Active	Not Active	Not Active	Not Active	Not Active		
CC(O)COC[C@H]1O[C@@H]2O[C@H]3[C@H](O)[C@@H](O)[C@@H](O[C@H]4[C@H](O)[C@@H](O)[C@@H](O[C@H]5[C@H](O)[C@@H](O)[C@@H](O[C@H]6[C@H](O)[C@@H](O)[C@@H](O[C@H]7[C@H](O)[C@@H](O)[C@@H](O[C@H]8[C@H](O)[C@@H](O)[C@@H](O[C@H]1[C@H](O)[C@H]2O)O[C@@H]8COCC(C)O)O[C@@H]7COCC(C)O)O[C@@H]6COCC(C)O)O[C@@H]5COCC(C)O)O[C@@H]4COCC(C)O)O[C@@H]3COCC(C)O (stereo partly drawn) [2-HYDROXYPROPYL-BETA-CYCLODEXTRIN]	Not Active	Not Active	Not Active	Not Active	Not Active	Not Active	Not Active	Not Active	Not Active	Not Active		
C[C@]12CC[C@@H]3c4ccc(O)cc4CC[C@H]3[C@@H]1C[C@@H](O)[C@@H]2O [ESTRIOL]	Not Active	Not Active	Not Active	Not Active	Not Active	Not Active	Not Active	Not Active	Not Active	Not Active		
O=C(O)P(=O)(O)O [FOSCARNET]	Not Active	Not Active	Not Active	Not Active	Not Active	Not Active	Not Active	Not Active	Not Active	Not Active		
CC1=NN(c2ccccc2)C(=O)C1 [EDARAVONE]	Not Active	Not Active	Not Active	Not Active	Not Active	Not Active	Not Active	Not Active	Not Active	Not Active		
CCCNC(C)C(=O)Nc1ccccc1C (stereo unspecified) [PRILOCAINE]	Not Active	Not Active	Not Active	Not Active	Not Active	Not Active	Not Active	Not Active	Not Active	Not Active		
C[C@H]1O[C@H](O[C@H]2[C@H](O)[C@@H](O)[C@@H](O[C@H]3[C@H](O)[C@@H](O)C(O)O[C@@H]3CO)O[C@@H]2CO)[C@H](O)[C@@H](O)[C@@H]1N[C@H]1C=C(CO)[C@@H](O)[C@H](O)[C@H]1O (stereo partly specified) [ACARBOSE]	Not Active	Not Active	Not Active	Not Active	Not Active	Not Active	Not Active	Not Active	Not Active	Not Active		
CN(C)C(=N)NC(=N)N [METFORMIN]	Not Active	Not Active	Not Active	Not Active	Not Active	Not Active	Not Active	Not Active	Not Active	Not Active		
CCc1ccc(CCOc2ccc(CC3SC(=O)NC3=O)cc2)nc1 (stereo unspecified) [PIOGLITAZONE]	Not Active	Not Active	Not Active	Not Active	Not Active	Not Active	Not Active	Not Active	Not Active	Not Active		
Cn1c(=O)c2c(ncn2C)n(C)c1=O [CAFFEINE]	Not Active	Not Active	Not Active	Not Active	Not Active	Not Active	Not Active	Not Active	Not Active	Not Active		
COc1cc(OC)c(C(=O)CCCN2CCCC2)c(OC)c1 [BUFLOMEDIL]	Not Active	Not Active	Not Active	Not Active	Not Active	Not Active	Not Active	Not Active	Not Active	Not Active		
C[C@]12CC[C@H]3[C@@H](CCC4=CC(=O)CC[C@@H]43)[C@@H]1CC[C@@H]2O [NANDROLONE]	Not Active	Not Active	Not Active	Not Active	Not Active	Not Active	Not Active	Not Active	Not Active	Not Active		
CS(=O)(=O)Nc1ccc([N+](=O)[O-])cc1Oc1ccccc1 [NIMESULIDE]	Not Active	Not Active	Not Active	Not Active	Not Active	Not Active	Not Active	Not Active	Not Active	Not Active		
